According to ChEMBL document CHEMBL1201862, “PubChem BioAssay data set” (2004):
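Where inhibition never reached the appropriate level, the endpoint shown equals the highest concentration tested. Otherwise, values were interpolated linearly from a five-concentration, 48-hour dose response in 96-well plates. GI50 marks 50% less growth.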 The source made the active and inactive calls. Cut-off read from the data, not from the text of the source: active = GI50 up to about 1.1 µM and inactive = higher.

Legend:
Assay in all cases: NCI anticancer screen, dose series, 48 h
[1] = test system: 786-0
[2] = test system: CCRF-CEM
[3] = test system: COLO 205
[4] = test system: HL-60
[5] = test system: HOP-62
[6] = test system: HT-29
[7] = test system: IGROV-1
[8] = test system: M14
[9] = test system: MCF7
[10] = test system: Malme-3M
[11] = test system: NCI-H460
[12] = test system: NCI/ADR-RES
[13] = test system: OVCAR-3
[14] = test system: SNB-19
[15] = test system: SR
[16] = test system: TK-10
[17] = test system: UACC-62
[18] = test system: UO-31
[19] = test system: RPMI-8226
[20] = test system: SK-OV-3

Structure (SMILES) | GI50 [1] | GI50 [2] | GI50 [3] | GI50 [4] | GI50 [5] | GI50 [6] | GI50 [7] | GI50 [8] | GI50 [9] | GI50 [10] | GI50 [11] | GI50 [12] | GI50 [13] | GI50 [14] | GI50 [15] | GI50 [16] | GI50 [17] | GI50 [18] | GI50 [19] | GI50 [20]
Cc1ccc([C@@H]2[C@@H](C(=O)c3ccccn3)[C@H](c3ccc(C)cc3)C[C@](O)(c3ccccn3)[C@H]2C(=O)c2ccccn2)cc1 | 1.81 µM (inactive) | 0.851 µM (active) | 5.24 µM (inactive) | 2.52 µM (inactive) | 5.73 µM (inactive) | 2.97 µM (inactive) | 4.53 µM (inactive) | 1.31 µM (inactive) | 4.86 µM (inactive) | 8.79 µM (inactive) | 2.27 µM (inactive) | 2.86 µM (inactive) | 7.8 µM (inactive) | 3.04 µM (inactive) | 0.495 µM (active) | 6.05 µM (inactive) | 3.16 µM (inactive) | 2.32 µM (inactive) | – | –
FC(F)(Sc1ccccc1)c1nc2ccccc2o1 | 91.6 µM (inactive) | 19.4 µM (inactive) | > 100 µM (inactive) | – | > 100 µM (inactive) | 33.6 µM (inactive) | > 100 µM (inactive) | 68.9 µM (inactive) | 35.2 µM (inactive) | 51.1 µM (inactive) | 55.5 µM (inactive) | 18.6 µM (inactive) | 34.4 µM (inactive) | – | 22 µM (inactive) | 75.2 µM (inactive) | 67.8 µM (inactive) | 49 µM (inactive) | 40.3 µM (inactive) | 20.8 µM (inactive)
CSC1=N/C(=C\c2ccco2)C(=O)N1CN1CCCCC1 | 54.6 µM (inactive) | – | 38.4 µM (inactive) | – | > 100 µM (inactive) | 51.6 µM (inactive) | 89.9 µM (inactive) | 85.3 µM (inactive) | 17.3 µM (inactive) | > 100 µM (inactive) | – | > 100 µM (inactive) | > 100 µM (inactive) | 87.3 µM (inactive) | > 100 µM (inactive) | > 100 µM (inactive) | 33.1 µM (inactive) | > 100 µM (inactive) | 35.6 µM (inactive) | > 100 µM (inactive)
Nc1nc2c(=O)c3ccccc3sc2s1 | 34.7 µM (inactive) | 78.3 µM (inactive) | 96.4 µM (inactive) | 28.9 µM (inactive) | 29.2 µM (inactive) | 54.8 µM (inactive) | 43.2 µM (inactive) | > 100 µM (inactive) | 5.96 µM (inactive) | – | 35.1 µM (inactive) | 25.9 µM (inactive) | 56.2 µM (inactive) | 41.9 µM (inactive) | 48.3 µM (inactive) | 41.5 µM (inactive) | 26.6 µM (inactive) | 35.6 µM (inactive) | 33.6 µM (inactive) | –
COC(=O)C/N=C1\NC(=S)N(Cc2ccc(OC)cc2)C12CCCC2 | > 100 µM (inactive) | > 100 µM (inactive) | > 100 µM (inactive) | – | > 100 µM (inactive) | > 100 µM (inactive) | – | > 100 µM (inactive) | > 100 µM (inactive) | > 100 µM (inactive) | > 100 µM (inactive) | > 100 µM (inactive) | > 100 µM (inactive) | > 100 µM (inactive) | > 100 µM (inactive) | – | > 100 µM (inactive) | > 100 µM (inactive) | > 100 µM (inactive) | > 100 µM (inactive)
Cn1c(=O)cc(Nc2ccc(N)cc2)[nH]c1=O | > 100 µM (inactive) | > 100 µM (inactive) | > 100 µM (inactive) | – | > 100 µM (inactive) | > 100 µM (inactive) | > 100 µM (inactive) | > 100 µM (inactive) | 49.4 µM (inactive) | > 100 µM (inactive) | > 100 µM (inactive) | > 100 µM (inactive) | > 100 µM (inactive) | > 100 µM (inactive) | > 100 µM (inactive) | > 100 µM (inactive) | > 100 µM (inactive) | > 100 µM (inactive) | > 100 µM (inactive) | > 100 µM (inactive)
COC(=O)[C@H](Cc1ccccc1)NC(=O)N1CCCN(C(=O)N[C@@H](Cc2ccccc2)C(=O)OC)CCCN(C(=O)N[C@@H](Cc2ccccc2)C(=O)OC)CCC1 | 17.5 µM (inactive) | 32.5 µM (inactive) | 18 µM (inactive) | 32.8 µM (inactive) | 16.6 µM (inactive) | 16.8 µM (inactive) | 16.4 µM (inactive) | 18 µM (inactive) | 18.2 µM (inactive) | 17.2 µM (inactive) | 27.7 µM (inactive) | 30.8 µM (inactive) | 16.9 µM (inactive) | 27.7 µM (inactive) | – | 22.3 µM (inactive) | 16.2 µM (inactive) | 15.9 µM (inactive) | 32.1 µM (inactive) | 22.8 µM (inactive)
Cc1nn(-c2ccccc2)c(C)c1/C=N/N=C1\S/C(=C\c2ccc(Cl)cc2)C(=O)N1c1ccccc1 | 3.13 µM (inactive) | > 100 µM (inactive) | > 100 µM (inactive) | 11.8 µM (inactive) | 20.1 µM (inactive) | 16.6 µM (inactive) | 5.83 µM (inactive) | > 100 µM (inactive) | 17.3 µM (inactive) | 28.1 µM (inactive) | > 100 µM (inactive) | 17.2 µM (inactive) | > 100 µM (inactive) | 48.8 µM (inactive) | – | 14.2 µM (inactive) | 16.8 µM (inactive) | > 100 µM (inactive) | 26.4 µM (inactive) | > 100 µM (inactive)
CNC(=O)c1ccc(C(=O)NCCCCCN(O)C(=O)CCC(=O)NCCCCCN(O)C(=O)CCC(=O)NCCCCCN(O)C(C)=O)c(O)c1O | 69.3 µM (inactive) | 5 µM (inactive) | 27.1 µM (inactive) | 23.8 µM (inactive) | 21.4 µM (inactive) | 38.9 µM (inactive) | 60.4 µM (inactive) | 59.8 µM (inactive) | 48.2 µM (inactive) | 90.8 µM (inactive) | 36.1 µM (inactive) | 41.6 µM (inactive) | 8.57 µM (inactive) | 62.7 µM (inactive) | – | 78.9 µM (inactive) | 36.1 µM (inactive) | 24.3 µM (inactive) | 38.5 µM (inactive) | 45.4 µM (inactive)
COc1ccc(N[C@H]([C@@H](c2ccccc2)[S+]([O-])c2ccc(C)cc2)C(F)(F)F)cc1 (some centres undefined) | 39 µM (inactive) | 21.8 µM (inactive) | 37.2 µM (inactive) | 19.1 µM (inactive) | – | 31.8 µM (inactive) | 48.8 µM (inactive) | 45.6 µM (inactive) | 38.9 µM (inactive) | 75.2 µM (inactive) | 50.1 µM (inactive) | 87.3 µM (inactive) | > 100 µM (inactive) | 33.1 µM (inactive) | > 100 µM (inactive) | 74.1 µM (inactive) | 29.1 µM (inactive) | 59.8 µM (inactive) | – | > 100 µM (inactive)
CC1C2=C(CCCC2=O)N(c2ccc(Cl)cc2)C2=C1C(=O)CCC2 | > 100 µM (inactive) | 38.5 µM (inactive) | – | 31.3 µM (inactive) | – | 45.6 µM (inactive) | > 100 µM (inactive) | > 100 µM (inactive) | 57.7 µM (inactive) | – | 60.5 µM (inactive) | 71 µM (inactive) | 69.8 µM (inactive) | > 100 µM (inactive) | 39.2 µM (inactive) | 86.7 µM (inactive) | 67.1 µM (inactive) | 46.2 µM (inactive) | 67 µM (inactive) | > 100 µM (inactive)
